Laboratory results as given in ChEMBL document CHEMBL5465560, “Selectivity Literature for EUbOPEN Chemogenomic Library” (2024).

Experiments:
[1] = biological target: T1, MAP/microtubule affinity-regulating kinase 4 (Homo sapiens) (UniProt Q96L34); details: at 10 µM
T1 sequence (whole entry): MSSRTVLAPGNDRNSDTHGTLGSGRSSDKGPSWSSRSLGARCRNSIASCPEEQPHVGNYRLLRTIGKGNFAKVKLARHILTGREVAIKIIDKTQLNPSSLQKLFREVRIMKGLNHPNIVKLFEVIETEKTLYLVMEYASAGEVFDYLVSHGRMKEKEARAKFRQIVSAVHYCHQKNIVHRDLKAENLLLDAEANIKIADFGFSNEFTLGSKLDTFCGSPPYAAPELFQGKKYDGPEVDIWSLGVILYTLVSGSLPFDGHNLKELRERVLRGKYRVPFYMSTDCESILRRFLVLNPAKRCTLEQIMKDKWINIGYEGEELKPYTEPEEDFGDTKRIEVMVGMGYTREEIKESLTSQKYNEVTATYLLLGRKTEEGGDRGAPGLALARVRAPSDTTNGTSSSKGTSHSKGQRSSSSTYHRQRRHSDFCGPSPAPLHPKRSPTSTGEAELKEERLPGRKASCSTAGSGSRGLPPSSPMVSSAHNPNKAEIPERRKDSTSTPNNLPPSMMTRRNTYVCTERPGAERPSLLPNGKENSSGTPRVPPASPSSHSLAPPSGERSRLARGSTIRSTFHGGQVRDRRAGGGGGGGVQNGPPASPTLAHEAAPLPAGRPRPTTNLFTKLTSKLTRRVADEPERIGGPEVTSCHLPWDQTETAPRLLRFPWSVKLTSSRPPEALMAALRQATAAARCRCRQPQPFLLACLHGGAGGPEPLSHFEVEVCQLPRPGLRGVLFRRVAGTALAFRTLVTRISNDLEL

[2] = biological target: Mitogen-activated protein kinase 7 (Homo sapiens) (UniProt Q13164); assay: Selectivity interaction (ActivX KiNativ screen (kinase selectivity in THP-1 cell lysates)) EUB0000639a MAPK7; format: subcellular; details: lysate
Chain of Mitogen-activated protein kinase 7 (Homo sapiens) (Q13164 2-816 limits assumed): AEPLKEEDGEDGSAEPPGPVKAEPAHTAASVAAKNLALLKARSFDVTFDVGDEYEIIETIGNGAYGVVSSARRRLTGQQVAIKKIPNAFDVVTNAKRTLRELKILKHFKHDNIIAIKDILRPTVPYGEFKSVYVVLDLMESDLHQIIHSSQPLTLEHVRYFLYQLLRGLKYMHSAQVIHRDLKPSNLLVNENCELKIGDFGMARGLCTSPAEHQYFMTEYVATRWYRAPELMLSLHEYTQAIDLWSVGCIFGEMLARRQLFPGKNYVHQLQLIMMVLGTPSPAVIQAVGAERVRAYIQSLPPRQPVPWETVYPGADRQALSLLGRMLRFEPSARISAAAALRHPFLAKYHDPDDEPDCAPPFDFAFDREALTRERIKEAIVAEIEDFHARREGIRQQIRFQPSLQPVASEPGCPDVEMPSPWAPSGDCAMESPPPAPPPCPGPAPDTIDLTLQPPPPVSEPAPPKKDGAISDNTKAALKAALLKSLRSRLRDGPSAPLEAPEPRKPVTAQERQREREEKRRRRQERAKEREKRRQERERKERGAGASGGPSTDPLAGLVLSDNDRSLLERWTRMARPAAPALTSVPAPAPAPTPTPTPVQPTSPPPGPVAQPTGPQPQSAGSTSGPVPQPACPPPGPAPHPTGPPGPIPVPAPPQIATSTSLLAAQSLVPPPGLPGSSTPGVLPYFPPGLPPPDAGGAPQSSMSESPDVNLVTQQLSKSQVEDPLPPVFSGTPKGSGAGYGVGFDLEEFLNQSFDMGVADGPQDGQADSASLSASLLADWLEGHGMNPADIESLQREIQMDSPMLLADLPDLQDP

[3] = biological target: Mitogen-activated protein kinase kinase kinase kinase 1 (Homo sapiens) (UniProt Q92918); assay: Selectivity interaction (ActivX KiNativ screen (kinase selectivity in THP-1 cell lysates)) EUB0000639a MAP4K1; format: subcellular; details: lysate, at 0.01 µM
Chain of Mitogen-activated protein kinase kinase kinase kinase 1 (Homo sapiens) (Q92918 whole entry, looked up): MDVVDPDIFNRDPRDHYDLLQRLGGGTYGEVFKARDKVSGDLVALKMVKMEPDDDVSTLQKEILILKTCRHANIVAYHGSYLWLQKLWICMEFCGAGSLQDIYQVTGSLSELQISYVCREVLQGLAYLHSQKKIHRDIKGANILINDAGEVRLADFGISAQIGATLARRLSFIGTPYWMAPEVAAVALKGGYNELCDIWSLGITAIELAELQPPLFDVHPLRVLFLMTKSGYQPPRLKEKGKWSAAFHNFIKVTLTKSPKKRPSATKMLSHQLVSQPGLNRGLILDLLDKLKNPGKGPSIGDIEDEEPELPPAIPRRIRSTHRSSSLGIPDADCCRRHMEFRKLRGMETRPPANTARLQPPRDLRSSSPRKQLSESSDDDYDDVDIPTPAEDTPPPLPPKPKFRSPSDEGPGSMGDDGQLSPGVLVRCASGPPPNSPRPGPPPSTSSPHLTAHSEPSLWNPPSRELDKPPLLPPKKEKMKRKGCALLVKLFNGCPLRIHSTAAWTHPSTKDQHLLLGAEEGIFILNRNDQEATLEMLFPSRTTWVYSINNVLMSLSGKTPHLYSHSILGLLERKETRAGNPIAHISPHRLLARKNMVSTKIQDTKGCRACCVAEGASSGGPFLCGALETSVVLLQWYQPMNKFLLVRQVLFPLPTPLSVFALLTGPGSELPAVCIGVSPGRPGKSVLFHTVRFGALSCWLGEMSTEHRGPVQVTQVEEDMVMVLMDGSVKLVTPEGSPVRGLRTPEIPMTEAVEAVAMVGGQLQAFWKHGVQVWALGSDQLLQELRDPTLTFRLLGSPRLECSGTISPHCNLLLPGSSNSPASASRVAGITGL

[4] = biological target: Serine/threonine-protein kinase Nek7 (Homo sapiens) (UniProt Q8TDX7); assay: Selectivity interaction (KinomeScan (DiscoverX)) EUB0000695a NEK7; details: at 100 nM
Chain of Serine/threonine-protein kinase Nek7 (Homo sapiens) (Q8TDX7 whole entry, looked up): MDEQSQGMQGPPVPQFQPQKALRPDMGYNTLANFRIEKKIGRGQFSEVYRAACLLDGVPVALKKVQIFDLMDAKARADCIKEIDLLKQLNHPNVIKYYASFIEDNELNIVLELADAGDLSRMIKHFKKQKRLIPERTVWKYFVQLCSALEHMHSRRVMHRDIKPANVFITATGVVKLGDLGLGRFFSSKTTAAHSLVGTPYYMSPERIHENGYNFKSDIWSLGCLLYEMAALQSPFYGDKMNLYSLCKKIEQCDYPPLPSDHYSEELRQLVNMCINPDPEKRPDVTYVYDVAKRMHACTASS

[5] = biological target: Ribosomal protein S6 kinase beta-1 (Homo sapiens, UniProt P23443); assay: Selectivity interaction (KinomeScan (DiscoverX)) EUB0000695a RPS6KB1; details: at 100 nM
Chain of Ribosomal protein S6 kinase beta-1 (P23443 whole entry, looked up): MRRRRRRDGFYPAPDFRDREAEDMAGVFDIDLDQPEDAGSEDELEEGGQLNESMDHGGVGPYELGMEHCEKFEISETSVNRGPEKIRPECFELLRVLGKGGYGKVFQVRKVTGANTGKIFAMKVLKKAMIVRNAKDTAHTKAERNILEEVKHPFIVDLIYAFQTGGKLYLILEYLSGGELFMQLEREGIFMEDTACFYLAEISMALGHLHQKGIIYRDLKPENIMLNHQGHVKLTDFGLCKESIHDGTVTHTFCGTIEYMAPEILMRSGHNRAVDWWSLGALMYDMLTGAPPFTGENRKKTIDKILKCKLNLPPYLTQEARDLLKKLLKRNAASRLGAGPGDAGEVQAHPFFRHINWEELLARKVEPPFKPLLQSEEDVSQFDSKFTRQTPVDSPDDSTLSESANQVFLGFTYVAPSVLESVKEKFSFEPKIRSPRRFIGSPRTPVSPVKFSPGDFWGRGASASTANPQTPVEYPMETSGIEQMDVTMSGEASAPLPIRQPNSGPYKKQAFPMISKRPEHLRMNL

[6] = biological target: T2, Serine/threonine-protein kinase Nek9 (Homo sapiens) (UniProt Q8TD19); assay: Selectivity interaction (KinomeScan (DiscoverX)) EUB0000595a NEK9; details: at 10 µM
T2 sequence (whole entry): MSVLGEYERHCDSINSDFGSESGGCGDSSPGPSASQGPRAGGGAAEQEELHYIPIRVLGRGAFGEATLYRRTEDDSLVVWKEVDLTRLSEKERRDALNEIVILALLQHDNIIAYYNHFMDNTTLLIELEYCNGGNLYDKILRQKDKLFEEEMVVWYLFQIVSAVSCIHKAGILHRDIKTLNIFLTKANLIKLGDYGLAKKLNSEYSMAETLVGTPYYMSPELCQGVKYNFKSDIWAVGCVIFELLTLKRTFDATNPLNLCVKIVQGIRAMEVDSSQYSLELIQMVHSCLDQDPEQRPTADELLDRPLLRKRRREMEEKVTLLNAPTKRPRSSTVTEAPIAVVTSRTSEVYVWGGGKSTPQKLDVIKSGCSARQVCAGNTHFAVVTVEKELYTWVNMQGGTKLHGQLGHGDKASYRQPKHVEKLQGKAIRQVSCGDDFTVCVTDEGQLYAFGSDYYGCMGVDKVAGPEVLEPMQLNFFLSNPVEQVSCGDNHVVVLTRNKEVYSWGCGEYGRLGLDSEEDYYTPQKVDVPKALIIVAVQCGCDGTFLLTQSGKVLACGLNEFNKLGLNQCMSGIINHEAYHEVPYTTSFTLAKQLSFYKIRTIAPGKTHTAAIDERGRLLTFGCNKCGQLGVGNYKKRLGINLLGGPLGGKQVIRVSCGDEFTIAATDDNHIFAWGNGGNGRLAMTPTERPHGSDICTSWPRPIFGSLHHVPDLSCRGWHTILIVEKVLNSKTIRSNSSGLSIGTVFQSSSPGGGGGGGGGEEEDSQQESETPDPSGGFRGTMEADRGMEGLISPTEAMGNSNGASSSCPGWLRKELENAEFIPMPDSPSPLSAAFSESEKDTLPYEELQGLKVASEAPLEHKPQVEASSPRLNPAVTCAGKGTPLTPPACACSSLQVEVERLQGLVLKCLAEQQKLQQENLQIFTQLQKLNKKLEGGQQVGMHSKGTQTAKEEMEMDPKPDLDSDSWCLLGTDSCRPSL

[7] = biological target: T3, Serine/threonine-protein kinase DCLK1 (Homo sapiens) (UniProt O15075); assay: Selectivity interaction (KinomeScan (DiscoverX)) EUB0000045b DCLK1
T3 sequence (whole entry): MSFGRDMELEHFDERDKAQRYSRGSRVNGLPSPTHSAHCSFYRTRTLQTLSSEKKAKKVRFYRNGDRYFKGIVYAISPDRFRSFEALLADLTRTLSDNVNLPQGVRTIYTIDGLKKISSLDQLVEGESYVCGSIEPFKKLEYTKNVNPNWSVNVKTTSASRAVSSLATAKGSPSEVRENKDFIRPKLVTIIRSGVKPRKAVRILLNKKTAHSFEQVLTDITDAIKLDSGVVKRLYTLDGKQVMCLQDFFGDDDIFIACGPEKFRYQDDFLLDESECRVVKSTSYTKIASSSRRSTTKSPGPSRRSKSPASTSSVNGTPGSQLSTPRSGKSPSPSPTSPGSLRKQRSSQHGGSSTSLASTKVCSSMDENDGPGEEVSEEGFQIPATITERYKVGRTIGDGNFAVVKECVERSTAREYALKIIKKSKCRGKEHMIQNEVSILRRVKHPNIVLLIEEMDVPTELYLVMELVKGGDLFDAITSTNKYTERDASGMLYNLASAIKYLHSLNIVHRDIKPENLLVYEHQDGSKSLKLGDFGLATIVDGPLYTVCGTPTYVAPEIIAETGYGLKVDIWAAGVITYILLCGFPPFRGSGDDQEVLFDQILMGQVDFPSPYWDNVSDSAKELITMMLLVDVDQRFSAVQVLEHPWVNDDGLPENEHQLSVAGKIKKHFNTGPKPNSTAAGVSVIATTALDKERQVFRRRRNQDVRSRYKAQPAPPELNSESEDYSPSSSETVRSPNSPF

[8] = test system: Tyrosine-protein kinase ABL1 (Homo sapiens), P00519 [F317I]; assay: Selectivity interaction (KinomeScan (DiscoverX)) EUB0000045b ABL1; details: at 10 µM
Chain of Tyrosine-protein kinase ABL1 (Homo sapiens), P00519 [F317I] (P00519 whole entry F317I): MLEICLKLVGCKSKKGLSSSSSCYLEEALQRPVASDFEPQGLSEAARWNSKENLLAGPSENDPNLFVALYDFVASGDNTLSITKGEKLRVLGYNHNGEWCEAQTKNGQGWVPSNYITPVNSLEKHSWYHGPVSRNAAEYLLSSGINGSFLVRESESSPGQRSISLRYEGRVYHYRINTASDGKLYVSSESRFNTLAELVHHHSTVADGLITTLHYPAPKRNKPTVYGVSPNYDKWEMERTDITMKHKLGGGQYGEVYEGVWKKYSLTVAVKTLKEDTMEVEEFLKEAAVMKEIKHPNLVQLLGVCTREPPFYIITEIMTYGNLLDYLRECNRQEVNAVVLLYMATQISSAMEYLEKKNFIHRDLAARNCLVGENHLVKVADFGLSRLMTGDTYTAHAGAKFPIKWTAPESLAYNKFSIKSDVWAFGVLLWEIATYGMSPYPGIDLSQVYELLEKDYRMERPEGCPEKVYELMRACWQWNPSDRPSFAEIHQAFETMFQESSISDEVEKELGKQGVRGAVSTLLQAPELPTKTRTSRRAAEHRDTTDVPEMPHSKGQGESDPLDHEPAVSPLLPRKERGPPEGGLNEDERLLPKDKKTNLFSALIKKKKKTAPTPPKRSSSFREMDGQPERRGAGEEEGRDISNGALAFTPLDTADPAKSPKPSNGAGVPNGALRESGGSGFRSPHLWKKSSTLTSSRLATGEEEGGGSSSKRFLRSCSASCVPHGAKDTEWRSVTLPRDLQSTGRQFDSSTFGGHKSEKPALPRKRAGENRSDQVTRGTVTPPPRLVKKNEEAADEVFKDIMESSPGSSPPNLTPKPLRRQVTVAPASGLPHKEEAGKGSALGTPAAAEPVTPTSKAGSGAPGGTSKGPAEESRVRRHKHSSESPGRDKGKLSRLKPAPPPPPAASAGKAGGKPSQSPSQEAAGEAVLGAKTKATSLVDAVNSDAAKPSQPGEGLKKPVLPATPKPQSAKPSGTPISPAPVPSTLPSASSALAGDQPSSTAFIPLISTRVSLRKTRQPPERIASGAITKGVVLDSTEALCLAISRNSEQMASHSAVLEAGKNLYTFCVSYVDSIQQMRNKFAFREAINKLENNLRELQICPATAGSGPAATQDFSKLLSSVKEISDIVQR

CCN(CC)CCCCNc1ncc2cc(-c3cc(OC)cc(OC)c3)c(NC(=O)NC(C)(C)C)nc2n1
% of control [1]: 100%

CC[C@@H]1[C@H](F)C(=O)N[C@@H]1COc1nccc2cc(C(N)=O)c(OC)cc12 [ZIMLOVISERTIB]
% of inhibition ([2]; at 0.01 µM): -4.2%
% of inhibition ([2]; at 0.04 µM): 1.9%
% of inhibition ([2]; at 0.2 µM): -8.8%
% of inhibition ([2]; at 1 µM): -11.9%
% of inhibition ([2]; at 5 µM): 15.7%
% of inhibition [3]: 6.1%

Cc1cc(F)c(C(=O)Nc2cccc(-c3nncn3C(C)C)n2)cc1-n1cnc(C2CC2)c1
% of control [4]: 100%
% of control [5]: 100%

COCC(=O)NC/C=C/c1ccc2ncnc(Nc3ccc(Oc4ccc(C)nc4)c(C)c3)c2c1 [CP-724714]
% of control [6]: 82%

C=CC(=O)Nc1cc(-n2c(=O)ccc3cnc4ccc(-c5ccc(NS(C)(=O)=O)cc5)cc4c32)ccc1C
% of control ([7]; at 1 µM): 100%
% of control ([7]; at 10 µM): 84%
% of control [8]: 100%
